The values below come from ChEMBL document CHEMBL5465560, “Selectivity Literature for EUbOPEN Chemogenomic Library” (2024).

In assay [1] the target is T1, Mitogen-activated protein kinase 12 (Homo sapiens) (UniProt P53778).
T1 sequence (whole entry): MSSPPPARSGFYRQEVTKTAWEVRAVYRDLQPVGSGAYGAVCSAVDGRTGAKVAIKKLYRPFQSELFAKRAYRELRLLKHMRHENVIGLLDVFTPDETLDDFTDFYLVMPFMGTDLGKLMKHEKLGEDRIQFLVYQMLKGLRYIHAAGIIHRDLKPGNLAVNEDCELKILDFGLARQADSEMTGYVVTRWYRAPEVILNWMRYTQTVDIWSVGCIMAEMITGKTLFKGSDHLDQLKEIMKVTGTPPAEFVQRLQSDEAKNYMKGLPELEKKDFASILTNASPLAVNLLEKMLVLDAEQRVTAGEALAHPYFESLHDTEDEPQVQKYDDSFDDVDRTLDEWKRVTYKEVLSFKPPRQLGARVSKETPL
As to the kind of experiment: Selectivity interaction (KinomeScan (DiscoverX)) EUB0001079a MAPK12. Particulars: at 1 µM.

For assay [2], the target named is Serine/threonine-protein kinase MRCK gamma (Homo sapiens) (UniProt Q6DT37). Nature of the assay: Selectivity interaction (KinomeScan (DiscoverX)) EUB0000655a CDC42BPG. Particulars: at 10 µM.
Chain of Serine/threonine-protein kinase MRCK gamma (Homo sapiens) (Q6DT37 whole entry): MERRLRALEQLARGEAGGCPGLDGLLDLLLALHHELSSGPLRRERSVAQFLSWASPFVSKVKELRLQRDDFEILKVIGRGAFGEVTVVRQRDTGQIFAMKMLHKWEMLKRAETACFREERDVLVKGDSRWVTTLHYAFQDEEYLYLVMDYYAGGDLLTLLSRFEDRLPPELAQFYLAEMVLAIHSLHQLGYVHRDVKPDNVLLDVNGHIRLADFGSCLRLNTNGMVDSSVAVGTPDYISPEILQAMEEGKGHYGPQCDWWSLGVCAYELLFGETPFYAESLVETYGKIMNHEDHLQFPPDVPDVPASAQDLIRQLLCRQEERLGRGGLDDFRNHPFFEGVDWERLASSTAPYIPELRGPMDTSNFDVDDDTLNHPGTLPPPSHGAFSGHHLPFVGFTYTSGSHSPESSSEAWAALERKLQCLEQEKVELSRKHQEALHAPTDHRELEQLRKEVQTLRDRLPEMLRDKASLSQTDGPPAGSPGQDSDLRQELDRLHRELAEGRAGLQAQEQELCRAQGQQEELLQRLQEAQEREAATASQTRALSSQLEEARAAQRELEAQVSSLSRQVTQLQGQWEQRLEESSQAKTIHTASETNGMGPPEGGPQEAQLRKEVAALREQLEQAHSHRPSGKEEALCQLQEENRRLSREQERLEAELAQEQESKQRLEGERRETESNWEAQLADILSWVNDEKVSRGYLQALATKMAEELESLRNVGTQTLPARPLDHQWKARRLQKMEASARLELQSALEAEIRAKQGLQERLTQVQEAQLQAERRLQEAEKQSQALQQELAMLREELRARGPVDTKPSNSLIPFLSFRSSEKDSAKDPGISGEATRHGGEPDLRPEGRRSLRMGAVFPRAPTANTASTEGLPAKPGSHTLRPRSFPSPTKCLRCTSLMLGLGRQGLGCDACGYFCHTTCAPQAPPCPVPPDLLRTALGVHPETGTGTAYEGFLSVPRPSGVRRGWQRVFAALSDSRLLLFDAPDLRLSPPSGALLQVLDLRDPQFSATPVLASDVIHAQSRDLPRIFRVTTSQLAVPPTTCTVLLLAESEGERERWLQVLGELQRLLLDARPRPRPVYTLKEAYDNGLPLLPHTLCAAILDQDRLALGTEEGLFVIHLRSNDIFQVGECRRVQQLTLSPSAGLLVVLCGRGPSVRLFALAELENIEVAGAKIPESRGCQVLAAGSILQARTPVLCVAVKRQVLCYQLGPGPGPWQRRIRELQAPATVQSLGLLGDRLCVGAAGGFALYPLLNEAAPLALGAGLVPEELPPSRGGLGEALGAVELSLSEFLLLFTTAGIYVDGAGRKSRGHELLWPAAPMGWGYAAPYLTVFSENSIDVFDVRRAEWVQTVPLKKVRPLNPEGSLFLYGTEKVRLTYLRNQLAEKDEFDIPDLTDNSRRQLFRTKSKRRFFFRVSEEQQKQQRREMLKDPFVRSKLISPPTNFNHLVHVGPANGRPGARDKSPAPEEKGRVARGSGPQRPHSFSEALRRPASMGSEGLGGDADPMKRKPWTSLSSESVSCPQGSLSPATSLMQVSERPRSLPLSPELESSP
The target of assay [3] is T2, Serine/threonine-protein kinase Nek2 (Homo sapiens) (UniProt P51955).
T2 sequence (whole entry): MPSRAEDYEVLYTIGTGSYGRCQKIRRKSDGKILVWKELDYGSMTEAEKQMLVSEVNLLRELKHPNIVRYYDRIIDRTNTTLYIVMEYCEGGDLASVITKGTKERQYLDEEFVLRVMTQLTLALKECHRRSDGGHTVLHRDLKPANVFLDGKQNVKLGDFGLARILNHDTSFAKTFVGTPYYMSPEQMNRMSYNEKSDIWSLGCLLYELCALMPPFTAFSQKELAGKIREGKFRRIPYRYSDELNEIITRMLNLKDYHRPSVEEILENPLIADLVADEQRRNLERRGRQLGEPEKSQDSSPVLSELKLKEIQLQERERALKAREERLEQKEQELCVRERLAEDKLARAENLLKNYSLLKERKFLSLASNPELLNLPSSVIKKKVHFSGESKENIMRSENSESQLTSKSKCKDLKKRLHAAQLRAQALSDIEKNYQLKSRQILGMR
Nature of the assay: Selectivity interaction (KinomeScan (DiscoverX)) EUB0000666a NEK2. Conditions: at 10 µM.

For assay [4], the target named is Mitogen-activated protein kinase 11 (Homo sapiens) (UniProt Q15759). As to the kind of experiment: Selectivity interaction (KinomeScan (DiscoverX)) EUB0000666a MAPK11. Particulars: at 10 µM.
Chain of Mitogen-activated protein kinase 11 (Homo sapiens) (Q15759 whole entry): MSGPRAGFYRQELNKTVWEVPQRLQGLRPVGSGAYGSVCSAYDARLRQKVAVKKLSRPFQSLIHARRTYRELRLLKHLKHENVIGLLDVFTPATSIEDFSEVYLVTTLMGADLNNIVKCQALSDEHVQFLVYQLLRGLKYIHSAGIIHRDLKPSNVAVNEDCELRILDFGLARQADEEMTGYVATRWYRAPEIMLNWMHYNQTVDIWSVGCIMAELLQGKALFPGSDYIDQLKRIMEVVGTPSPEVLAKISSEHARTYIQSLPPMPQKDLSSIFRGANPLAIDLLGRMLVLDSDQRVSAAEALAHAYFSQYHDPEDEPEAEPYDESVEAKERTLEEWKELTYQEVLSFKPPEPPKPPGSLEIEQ
The target of assay [5] is Ribosomal protein S6 kinase beta-1 (Homo sapiens, UniProt P23443). Nature of the assay: Selectivity interaction (SelectScreen profiling (Invitrogen)) EUB0000607a RPS6KB1. Conditions: at 2 µM.
Chain of Ribosomal protein S6 kinase beta-1 (P23443 whole entry, looked up): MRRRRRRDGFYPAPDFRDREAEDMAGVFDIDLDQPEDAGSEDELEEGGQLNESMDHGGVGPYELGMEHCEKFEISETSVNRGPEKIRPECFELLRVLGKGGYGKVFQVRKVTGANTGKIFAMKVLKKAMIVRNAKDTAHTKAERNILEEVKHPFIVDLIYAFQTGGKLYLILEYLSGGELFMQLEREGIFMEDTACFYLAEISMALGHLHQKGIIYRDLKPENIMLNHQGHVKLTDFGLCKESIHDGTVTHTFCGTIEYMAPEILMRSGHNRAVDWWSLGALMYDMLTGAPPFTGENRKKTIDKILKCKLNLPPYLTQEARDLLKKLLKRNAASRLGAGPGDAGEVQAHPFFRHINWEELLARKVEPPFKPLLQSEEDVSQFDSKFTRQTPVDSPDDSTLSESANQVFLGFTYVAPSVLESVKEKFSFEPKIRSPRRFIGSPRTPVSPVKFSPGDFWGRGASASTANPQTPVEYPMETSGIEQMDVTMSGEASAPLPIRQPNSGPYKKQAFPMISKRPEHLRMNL
For assay [6], the target named is T3, Serine/threonine-protein kinase 3 (Homo sapiens) (UniProt Q13188).
T3 sequence (whole entry): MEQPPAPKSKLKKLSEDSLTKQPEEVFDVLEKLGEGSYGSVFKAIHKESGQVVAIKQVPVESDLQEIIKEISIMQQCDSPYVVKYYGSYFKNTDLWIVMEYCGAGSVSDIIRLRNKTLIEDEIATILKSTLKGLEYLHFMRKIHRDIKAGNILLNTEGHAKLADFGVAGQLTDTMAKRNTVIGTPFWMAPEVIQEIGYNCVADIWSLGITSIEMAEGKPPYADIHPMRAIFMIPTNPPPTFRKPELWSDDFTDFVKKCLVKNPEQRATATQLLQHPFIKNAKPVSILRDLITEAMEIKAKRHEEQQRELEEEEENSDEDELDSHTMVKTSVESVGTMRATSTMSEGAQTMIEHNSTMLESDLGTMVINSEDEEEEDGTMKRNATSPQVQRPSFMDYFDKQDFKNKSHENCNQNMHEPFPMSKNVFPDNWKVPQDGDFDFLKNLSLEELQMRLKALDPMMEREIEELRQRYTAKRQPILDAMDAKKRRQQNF
Nature of the assay: Selectivity interaction (KinomeScan (DiscoverX)) EUB0000595a STK3. Particulars: at 10 µM.

Assay [7] deals with MAP kinase-interacting serine/threonine-protein kinase 2 (Homo sapiens, UniProt Q9HBH9). Nature of the assay: Selectivity interaction (Kinase panel (literature)) EUB0001199aCl MKNK2. Particulars: at 1 µM.
Chain of MAP kinase-interacting serine/threonine-protein kinase 2 (Q9HBH9 whole entry, looked up): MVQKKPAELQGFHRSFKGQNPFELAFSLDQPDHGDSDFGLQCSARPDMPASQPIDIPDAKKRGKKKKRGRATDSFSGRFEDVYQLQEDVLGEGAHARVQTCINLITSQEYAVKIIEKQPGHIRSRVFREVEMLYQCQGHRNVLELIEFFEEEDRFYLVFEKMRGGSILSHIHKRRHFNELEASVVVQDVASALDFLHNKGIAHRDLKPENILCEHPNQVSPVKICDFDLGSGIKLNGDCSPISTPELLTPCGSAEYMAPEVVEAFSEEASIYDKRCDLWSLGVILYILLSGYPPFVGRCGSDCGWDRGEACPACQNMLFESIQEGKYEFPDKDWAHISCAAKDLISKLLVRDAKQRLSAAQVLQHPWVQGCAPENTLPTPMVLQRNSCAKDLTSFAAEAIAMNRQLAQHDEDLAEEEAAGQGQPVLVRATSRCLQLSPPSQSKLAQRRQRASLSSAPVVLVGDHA
Assay [8] concerns the target T4, Serine/threonine-protein kinase tousled-like 1 (Homo sapiens) (UniProt Q9UKI8).
T4 sequence (whole entry): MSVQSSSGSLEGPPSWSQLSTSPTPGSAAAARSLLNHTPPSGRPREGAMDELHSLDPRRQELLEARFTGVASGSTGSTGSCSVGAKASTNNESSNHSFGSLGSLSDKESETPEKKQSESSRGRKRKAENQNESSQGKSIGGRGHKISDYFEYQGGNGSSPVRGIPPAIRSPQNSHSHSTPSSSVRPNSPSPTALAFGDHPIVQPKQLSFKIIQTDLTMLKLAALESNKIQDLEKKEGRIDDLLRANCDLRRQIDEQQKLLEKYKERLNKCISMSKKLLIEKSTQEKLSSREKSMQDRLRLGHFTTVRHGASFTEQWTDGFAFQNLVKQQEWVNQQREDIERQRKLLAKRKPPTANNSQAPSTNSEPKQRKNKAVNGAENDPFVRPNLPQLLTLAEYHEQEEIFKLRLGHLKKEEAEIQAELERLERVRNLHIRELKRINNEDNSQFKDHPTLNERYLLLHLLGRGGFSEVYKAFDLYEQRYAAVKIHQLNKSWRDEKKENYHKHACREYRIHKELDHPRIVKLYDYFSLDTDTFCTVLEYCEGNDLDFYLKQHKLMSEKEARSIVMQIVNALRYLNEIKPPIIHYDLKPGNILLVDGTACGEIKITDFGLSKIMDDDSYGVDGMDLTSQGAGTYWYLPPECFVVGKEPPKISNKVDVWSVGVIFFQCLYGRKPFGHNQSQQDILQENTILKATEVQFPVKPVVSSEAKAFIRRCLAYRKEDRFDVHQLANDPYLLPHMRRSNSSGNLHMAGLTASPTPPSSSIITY
As to the kind of experiment: Selectivity interaction (KinomeScan (DiscoverX)) EUB0000618a TLK1. Particulars: at 10 µM.

In assay [1], `Nc1cnc(N2CCc3cc(S(=O)(=O)Nc4c(F)cc(Cl)cc4F)cc(N4CCCC4=O)c32)nc1` [TP-020n] had a % of control of 100%. For `CN(C)CCOc1ccc(-c2nc(-c3ccncc3)c(-c3ccc4c(c3)CC/C4=N\O)[nH]2)cc1`, the % of control in assay [2] came to 32%. Take `O=C(NOC[C@H](O)CO)c1ccc(F)c(F)c1Nc1ccc(I)cc1F`: the % of control in assay [3] was 70%; in assay [4], 100%. In turn, `CNC(=O)Nc1ccc(-c2nc(N3CC4CCC(C3)O4)c3cnn(C4CCC5(CC4)OCCO5)c3n2)cc1` showed a % of inhibition in assay [5] of 2%.

In assay [6], `COCC(=O)NC/C=C/c1ccc2ncnc(Nc3ccc(Oc4ccc(C)nc4)c(C)c3)c2c1` [CP-724714] returned a % of control of 82%. In turn, `CN1Cc2nccc(-c3cn(C)nc3-c3ccc(F)cc3)c2C1=O` gave a % of inhibition in assay [7] of 9%.

`O[C@H]1CC[C@H](Nc2ncc3nc(Nc4c(F)cc(F)cc4F)n([C@H]4CCOC4)c3n2)CC1` had a % of control in assay [8] of 50%.
